Assays:
Format in all cases: in vivo
Conditions in all cases: evaluated after 13 days
[1] = test system: Amaranthus retoflexus (AMARE); test: Pre-emergence Test, Amaranthus retoflexus (AMARE)
[2] = test system: Setaria faberi (SETFA); test: Pre-emergence Test, Setaria faberi (SETFA)
[3] = test system: Echinochloa crus-galli (ECHCG); test: Post-emergence Test, Echinochloa crus-galli (ECHCG); parameters: key to percentage damage caused to the plant, ECHCG (five-point scale): 5=81-100%, 4=61-80%, 3=41-60%, 2=21-40%, 1=0-20% damage
Procedure, shortened: (§1)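 Scores are percentage plant damage on a 1–5 scale (1=0-20%, 2=21-40%, 3=41-60%, 4=61-80%, 5=81-100%), read 13 days after treatment. Pots received a spray at 1000 g/ha unless otherwise stated, formulated in acetone/water (50:50) containing 0.5% Tween 20.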

[4] = test system: Amaranthus palmeri (AMAPA); test: Pre-emergence Test, Amaranthus palmeri (AMAPA)
[5] = test system: Amaranthus palmeri (AMAPA); test: Post-emergence Test, Amaranthus palmeri (AMAPA); parameters: key: 5=81-100%, 4=61-80%, 3=41-60%, 2=21-40%, 1=0-20% damage
Procedure, shortened: as §1

[6] = test system: Zea mays (ZEAMX); test: Post-emergence Test, Zea mays (ZEAMX); parameters: key to percentage damage caused to the plant, ZEAMX (five-point scale): 5=81-100%, 4=61-80%, 3=41-60%, 2=21-40%, 1=0-20% damage
Procedure, shortened: as §1

[7] = test system: Echinochloa crus-galli (ECHCG); test: Pre-emergence Test, Echinochloa crus-galli (ECHCG)
[8] = test system: Ipomoea hederacea (IPOHE); test: Pre-emergence Test, Ipomoea hederacea (IPOHE)
[9] = test system: Amaranthus retoflexus (AMARE); test: Post-emergence Test, Amaranthus retoflexus (AMARE); parameters: key to percentage damage caused to the plant, AMARE (five-point scale): 5=81-100%, 4=61-80%, 3=41-60%, 2=21-40%, 1=0-20% damage
Procedure, shortened: as §1

[10] = test system: Zea mays (ZEAMX); test: Pre-emergence Test, Zea mays (ZEAMX)
[11] = test system: Setaria faberi (SETFA); test: Post-emergence Test, Setaria faberi (SETFA); parameters: key to percentage damage caused to the plant, SETFA (five-point scale): 5=81-100%, 4=61-80%, 3=41-60%, 2=21-40%, 1=0-20% damage
Procedure, shortened: as §1

[12] = test system: Ipomoea hederacea (IPOHE); test: Post-emergence Test, Ipomoea hederacea (IPOHE); parameters: key to percentage damage caused to the plant, IPOHE (five-point scale): 5=81-100%, 4=61-80%, 3=41-60%, 2=21-40%, 1=0-20% damage
Procedure, shortened: as §1

Structure (SMILES) | Pre-emergence Test AMARE, percentage damage caused to the plant (five-point scale) ([1]; 1000 g/ha) | Pre-emergence Test SETFA, percentage damage caused to the plant (five-point scale) ([2]; 1000 g/ha) | percentage damage caused to the plant, ECHCG (five-point scale) ([3]; 250 g/Ha) | percentage damage caused to the plant, ECHCG (five-point scale) ([3]; 1000 g/ha) | Pre-emergence Test AMAPA, percentage damage caused to the plant (five-point scale) ([4]; 1000 g/ha) | percentage damage caused to the plant, AMAPA (five-point scale) ([5]; 250 g/Ha) | percentage damage caused to the plant, AMAPA (five-point scale) ([5]; 1000 g/ha) | percentage damage caused to the plant, ZEAMX (five-point scale) ([6]; 250 g/Ha) | percentage damage caused to the plant, ZEAMX (five-point scale) ([6]; 1000 g/ha) | Pre-emergence Test ECHCG, percentage damage caused to the plant (five-point scale) ([7]; 1000 g/ha) | Pre-emergence Test IPOHE, percentage damage caused to the plant (five-point scale) ([8]; 1000 g/ha) | percentage damage caused to the plant, AMARE (five-point scale) ([9]; 250 g/Ha) | percentage damage caused to the plant, AMARE (five-point scale) ([9]; 1000 g/ha) | Pre-emergence Test ZEAMX, percentage damage caused to the plant (five-point scale) ([10]; 1000 g/ha) | percentage damage caused to the plant, SETFA (five-point scale) ([11]; 250 g/Ha) | percentage damage caused to the plant, SETFA (five-point scale) ([11]; 1000 g/ha) | percentage damage caused to the plant, IPOHE (five-point scale) ([12]; 250 g/Ha) | percentage damage caused to the plant, IPOHE (five-point scale) ([12]; 1000 g/ha) | Pre-emergence Test AMARE, percentage damage caused to the plant (five-point scale) ([1]; 250 g/Ha (*)) | Pre-emergence Test SETFA, percentage damage caused to the plant (five-point scale) ([2]; 250 g/Ha (*)) | further results
CCn1c(Cn2nc(C)cc2C)cc(=O)c(C(=O)O)c1-c1ccc(Cl)c(Cl)c1 [Compound 39, 2-(3,4-dichlorophenyl)-6-[(3,5-dimethylpyrazol-1-yl)methyl]-1-ethyl-4-oxo-pyridine-3-carboxylic acid] | 1 (1=0-20%) | 3 (3=41-60%) | 3 (3=41-60%) | 4 (4=61-80%) | 1 (1=0-20%) | 1 (1=0-20%) | 2 (2=21-40%) | 0 | 4 (4=61-80%) | 4 (4=61-80%) | 2 (2=21-40%) | 2 (2=21-40%) | 2 (2=21-40%) | 0 | 1 (1=0-20%) | 4 (4=61-80%) | 2 (2=21-40%) | 2 (2=21-40%) | – | – | –
CCn1c(Cn2ccc(SC)n2)cc(=O)c(C(=O)O)c1-c1ccc(Cl)c(Cl)c1 [Compound 35, 2-(3,4-dichlorophenyl)-1-ethyl-6-[(3-methylsulfanylpyrazol-1-yl)methyl]-4-oxo-pyridine-3-carboxylic acid] | 1 (1=0-20%) | 4 (4=61-80%) | 3 (3=41-60%) | 4 (4=61-80%) | 2 (2=21-40%) | 1 (1=0-20%) | 1 (1=0-20%) | 2 (2=21-40%) | 3 (3=41-60%) | 5 (5=81-100%) | 4 (4=61-80%) | – | 3 (3=41-60%) | 5 (5=81-100%) | 4 (4=61-80%) | 4 (4=61-80%) | 4 (4=61-80%) | 2 (2=21-40%) | – | – | –
CCn1c(Cn2cc3c(n2)COC3)cc(=O)c(C(=O)O)c1-c1ccc(Cl)c(Cl)c1 [Compound 92, 2-(3,4-dichlorophenyl)-6-(4,6-dihydrofuro[3,4-c]pyrazol-2-ylmethyl)-1-ethyl-4-oxo-pyridine-3-carboxylic acid] | 0 | 4 (4=61-80%) | 3 (3=41-60%) | 4 (4=61-80%) | 2 (2=21-40%) | 2 (2=21-40%) | 2 (2=21-40%) | 2 (2=21-40%) | 2 (2=21-40%) | 4 (4=61-80%) | 2 (2=21-40%) | 2 (2=21-40%) | 2 (2=21-40%) | 0 | 3 (3=41-60%) | 3 (3=41-60%) | 3 (3=41-60%) | 3 (3=41-60%) | 0 | 3 (3=41-60%) | Pre-emergence Test AMAPA, percentage damage caused to the plant (five-point scale) ([4]; 250 g/Ha (*)): 1 (1=0-20%); Pre-emergence Test ECHCG, percentage damage caused to the plant (five-point scale) ([7]; 250 g/Ha (*)): 3 (3=41-60%); Pre-emergence Test IPOHE, percentage damage caused to the plant (five-point scale) ([8]; 250 g/Ha (*)): 3 (3=41-60%); Pre-emergence Test ZEAMX, percentage damage caused to the plant (five-point scale) ([10]; 250 g/Ha (*)): 0
CCn1c(Cn2ccc(OC(F)F)n2)cc(=O)c(C(=O)O)c1-c1ccc(Cl)c(Cl)c1 [Compound 37, 2-(3,4-dichlorophenyl)-6-[[3-(difluoromethoxy)pyrazol-1-yl]methyl]-1-ethyl-4-oxo-pyridine-3-carboxylic acid] | 1 (1=0-20%) | 5 (5=81-100%) | 4 (4=61-80%) | 4 (4=61-80%) | 2 (2=21-40%) | 2 (2=21-40%) | 4 (4=61-80%) | 1 (1=0-20%) | 4 (4=61-80%) | 5 (5=81-100%) | 4 (4=61-80%) | 2 (2=21-40%) | 1 (1=0-20%) | 5 (5=81-100%) | 4 (4=61-80%) | 5 (5=81-100%) | 4 (4=61-80%) | 2 (2=21-40%) | – | – | –
CCn1c(Cn2ccc(C(F)(F)F)n2)c(-c2ccc(Cl)cc2)c(=O)c(C(=O)O)c1-c1ccc(Cl)c(Cl)c1 [Compound 21, 5-(4-chlorophenyl)-2-(3,4-dichlorophenyl)-1-ethyl-4-oxo-6-[[3-(trifluoromethyl)pyrazol-1-yl]methyl]pyridine-3-carboxylic acid] | – | – | – | 0 | – | – | 2 (2=21-40%) | – | 1 (1=0-20%) | – | – | – | 1 (1=0-20%) | – | – | 0 | – | 3 (3=41-60%) | 0 | 0 | Pre-emergence Test AMAPA, percentage damage caused to the plant (five-point scale) ([4]; 250 g/Ha (*)): 0; Pre-emergence Test ECHCG, percentage damage caused to the plant (five-point scale) ([7]; 250 g/Ha (*)): 0; Pre-emergence Test IPOHE, percentage damage caused to the plant (five-point scale) ([8]; 250 g/Ha (*)): 1 (1=0-20%); Pre-emergence Test ZEAMX, percentage damage caused to the plant (five-point scale) ([10]; 250 g/Ha (*)): 0
CCOC(=O)c1c(-c2cccc(Cl)c2)n(CC)c(Cn2ccc(C(F)(F)F)n2)cc1=O [Compound 26, ethyl 2-(3-chlorophenyl)-1-ethyl-4-oxo-6-[[3-(trifluoromethyl)pyrazol-1-yl]methyl]pyridine-3-carboxylate] | 0 | 3 (3=41-60%) | 1 (1=0-20%) | 1 (1=0-20%) | 0 | 1 (1=0-20%) | 2 (2=21-40%) | 1 (1=0-20%) | 2 (2=21-40%) | 2 (2=21-40%) | 0 | 1 (1=0-20%) | 1 (1=0-20%) | 1 (1=0-20%) | 1 (1=0-20%) | 1 (1=0-20%) | 1 (1=0-20%) | 3 (3=41-60%) | – | – | –
